Experimental data reported in patent US20130189262A1, “IL-27 Antagonists for Treating Inflammatory Diseases” (Five Prime Therapeutics, Inc., priority 2011, published 2013).

What was measured:
[1] = tested on: primary human bronchial smooth muscle cells; test: CXCL10 expression with combinations of TNF-α, IL-27 and fluticasone (bDNA assay); format: cell-based; details: for CXCL10 expression, factor alone: single factor alone (5 ng/ml TNF-α; 1 μg/ml linked IL-27; IFN-γ), FIG. 4
Experimental: Primary human bronchial smooth muscle cells were cultured in the presence of 5 ng/ml TNF-αalone, 5 ng/ml TNF-α and 25 nM fluticasone; 1 μg/ml linked IL-27; 5 ng/ml TNF-α and 30 ng/ml IL-27; or 5 ng/ml TNF-α, 25 nM fluticasone, and 30 ng/ml IL-27. CXCL10 expression was determined by bDNA assay.

[2] = tested on: primary human bronchial smooth muscle cells; test: Screen for factors inducing steroid resistance: CXCL10 and CD38 expression (bDNA) in bronchial smooth muscle cells with TNF-α and fluticasone; format: cell-based; details: 5 ng/ml TNF-α, 25 nM fluticasone
Experimental: In order to identify factors that induce a steroid-resistant state, an assay was set up as follows. Primary human bronchial smooth muscle cells were cultured in the presence of 5 ng/ml TNF-α and 25 nM fluticasone and a test substance. Steroid sensitivity was determined by detecting expression levels of CXCL10 (IP-10) and CD38 using a bDNA assay (QuantiGene® Plex 2.0; Panomics, Santa Clara, Calif.). Expression of each of those genes is suppressed by steroids, such as fluticasone. If a factor induces a steroid-insensitive state, expression of those genes should increase. Interferon family proteins were included as test substances as positive controls.
Using this assay, a library of over 4000 secreted and extracellular domain protein test substances were screened to identify test substances that induce a steroid-resistant state. The test substances were individually expressed in 293T cells and the cell supernatants used to test each substance in the assay.

[3] = tested on: primary human bronchial smooth muscle cells; test: Dose dependence of IL-27-induced steroid insensitivity (CXCL10/CD38 bDNA assay); format: cell-based; details: 5 ng/ml TNF-α, 25 nM fluticasone
Experimental: Primary human bronchial smooth muscle cells were cultured in the presence of 5 ng/ml TNF-α, 25 nM fluticasone, and increasing concentrations of linked IL-27 (Cat. No. 2526-IL; R&D Systems, Minneapolis, Minn.). CXCL10 and CD38 expression levels were determined by bDNA assay.

[4] = tested on: primary human bronchial smooth muscle cells; test: CXCL10 expression with TNF-α, fluticasone and IL-12 family cytokine supernatants (bDNA assay); format: cell-based; details: 5 ng/ml TNF-α, 25 nM fluticasone, 293T supernatant; FIG. 5
Experimental: Primary human bronchial smooth muscle cells were cultured in the presence of 5 ng/ml TNF-α, 25 nM fluticasone, and a supernatant from 293T cells expressing IL-27 subunit EBI3 alone, IL-27 subunit p28 alone, IL-12 (comprised of p35 and p40), IL-35 (comprised of p35 and EBI3), IL-23 (comprised of p19 and p40), or IL-27 (comprised of p28 and EBI3). CXCL10 expression was determined by bDNA assay.

[5] = tested on: primary human bronchial epithelial cells; test: CXCL9 (MIG) / CXCL10 induction in air-liquid interface bronchial epithelial cells (ELISA); format: cell-based; details: normal donor; with and without 25 nM fluticasone; FIG. 9
[6] = tested on: primary bronchial smooth muscle cells (BSMCs); test: WSX-1 expression in bronchial smooth muscle cells treated with factors (quantitative RT-PCR); format: cell-based, human; details: 5 ng/ml TNF-α; FIG. 7
Experimental: The effect of various factors on WSX-1 expression was then determined in primary bronchial smooth muscle cells (BSMCs). The BSMCs were treated with 5 ng/ml TNF-α, 10 ng/ml IFN-γ, 5 ng/ml TNF-α and 10 ng/ml IFN-γ, or 5 ng/ml TNF-α and 10 ng/ml IFN-γ and 25 nM fluticasone. WSX-1 expression was determined by quantitative RT-PCR and normalized to RPL19.

[7] = molecular target: T1, human IL-27 (Homo sapiens, UniProt Q14213+Q8NEV9); test: Inhibition of IL-27-induced CXCL10 expression in bronchial smooth muscle cells (ELISA); format: cell-based; details: 0.2 to 20 μg/mL preincubated with 5 ng/mL linked or native human IL-27 and 5 ng/mL TNF-α; FIG. 11
T1 construct: made in house
T1 sequence (Q8NEV9 29-243): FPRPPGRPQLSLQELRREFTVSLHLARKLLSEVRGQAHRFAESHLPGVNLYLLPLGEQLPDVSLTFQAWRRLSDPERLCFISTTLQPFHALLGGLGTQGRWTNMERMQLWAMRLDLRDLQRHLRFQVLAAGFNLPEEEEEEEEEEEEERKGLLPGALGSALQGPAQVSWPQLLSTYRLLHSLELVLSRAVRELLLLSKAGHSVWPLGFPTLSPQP
T1 sequence (Q14213 21-229): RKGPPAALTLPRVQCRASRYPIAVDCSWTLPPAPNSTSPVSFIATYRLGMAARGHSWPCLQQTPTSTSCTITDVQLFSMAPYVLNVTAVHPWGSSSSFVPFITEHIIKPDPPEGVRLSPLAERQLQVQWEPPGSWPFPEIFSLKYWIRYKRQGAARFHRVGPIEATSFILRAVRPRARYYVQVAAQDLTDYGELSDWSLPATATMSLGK
Experimental: Various concentrations of an IL-27 antagonist, WSX-1 ECD (0.2 to 20 μg/mL), were preincubated with 5 ng/mL of human IL-27 in the presence of 5 ng/mL of human TNF-α. Both linked and native human IL-27 were tested. Human linked IL-27 was obtained from R&D Systems and is produced with a linker between the p28 subunit and the EBI3 subunit. Native IL-27 was produced and purified in house by transfecting mammalian cells with separate vectors expressing each subunit and purifying the resulting p28/EBI3 (IL-27) heterodimer from the cell culture supernatant. Following the preincubation of WSX-1 ECD with IL-27 and TNF-α, the stimulus was added to primary human bronchial smooth muscle cells in culture. CXCL10 expression was determined by ELISA.
Various concentrations of a polyclonal antibody against human IL-27 (0.4 to 50 μg/mL; R&D Systems) were preincubated with 10 ng/mL of native human IL-27 in the presence of 5 ng/mL of human TNF-α. Following the preincubation of polyclonal antibody with IL-27 and TNF-α, the stimulus was added to primary human bronchial smooth muscle cells in culture. CXCL10 expression was determined by ELISA.

Question: Which “effect on CXCL10 expression induced by IL-27 and TNF-α” value ([1]; 5 ng/ml TNF-α, 25 nM fluticasone, 30 ng/ml IL-27) does the source give for C[C@@H]1C[C@H]2[C@@H]3C[C@H](F)C4=CC(=O)C=C[C@]4(C)[C@@]3(F)[C@@H](O)C[C@]2(C)[C@@]1(O)C(=O)SCF [fluticasone, reference compound] here?
Answer: no effect

Question: “IL-27: heterodimeric cytokine comprising the subunits p28 and EBI3; linked IL-27 from R&D Systems (Cat. No. 2526-IL)” was tested. Which “fold-change in CXCL10 expression (screen)” value ([2]; 293T supernatant of test substance, FIG. 1) did it give?
Answer: positive data points

Question: And the “effect on CD38 expression (two retests)” value ([2]; FIG. 2)?
Answer: positive data points

Question: And the “steroid insensitivity (CXCL10 expression in the presence of fluticasone)” value ([3]; increasing concentrations of linked IL-27)?
Answer: induced steroid-insensitivity in a dose-dependent manner

Question: What about the “expression of CD38” value ([3]; increasing concentrations of linked IL-27, data not shown) of the same molecule?
Answer: increased with increasing concentration

Question: What about the EC50 ([3]; linked IL-27, FIG. 3, read-out: EC50 for CXCL10 expression in the presence of fluticasone) of the same molecule?
Answer: 0.372 nM

Question: And the “synergistic increase of CXCL10 expression in the presence of TNF-α and fluticasone” value [4]?
Answer: synergistically increased CXCL10 expression

Question: What about the “steroid sensitivity of IL-27 induction of CXCL10 expression” value [5] of the same molecule?
Answer: steroid-insensitive at all concentrations of IL-27

Question: What about the “CXCL10 expression, in combination with TNF-α” value ([1]; 5 ng/ml TNF-α and 30 ng/ml IL-27) of the same molecule?
Answer: very high CXCL10 expression

Question: What about the “CXCL10 expression, factor alone” value [1] of the same molecule?
Answer: did not affect expression of CXCL10

Question: For TNF-α, which “WSX-1 expression normalized to RPL19” value [6] is on record?
Answer: up-regulated

Question: And the “CXCL10 expression, factor alone” value [1]?
Answer: increased expression of CXCL10

Question: With “IFN-γ: interferon family protein, positive control in the screen” as the molecule, how does the “CXCL10 expression, factor alone” value [1] read?
Answer: did not induce CXCL10 expression

B1: WSX-1 ECD: IL-27 antagonist; WSX-1 polypeptide that lacks the intracellular and transmembrane domains (protein, UniProt Q6UWB1 33-516, looked up)
extracellular domain: QGSAGPLQCYGVGPLGDLNCSWEPLGDLGAPSELHLQSQKYRSNKTQTVAVAAGRSWVAIPREQLTMSDKLLVWGTKAGQPLWPPVFVNLETQMKPNAPRLGPDVDFSEDDPLEATVHWAPPTWPSHKVLICQFHYRRCQEAAWTLLEPELKTIPLTPVEIQDLELATGYKVYGRCRMEKEEDLWGEWSPILSFQTPPSAPKDVWVSGNLCGTPGGEEPLLLWKAPGPCVQVSYKVWFWVGGRELSPEGITCCCSLIPSGAEWARVSAVNATSWEPLTNLSLVCLDSASAPRSVAVSSIAGSTELLVTWQPGPGEPLEHVVDWARDGDPLEKLNWVRLPPGNLSALLPGNFTVGVPYRITVTAVSASGLASASSVWGFREELAPLVGPTLWRLQDAPPGTPAIAWGEVPRHQLRGHLTHYTLCAQSGTSPSVCMNVSGNTQSVTLPDLPWGPCELWVTASTIAGQGPPGPILRLHLPDNTLRWK
modifications: extracellular domain
notes: IL-27 antagonist; WSX-1 polypeptide that lacks the intracellular and transmembrane domains
Question: How did the “inhibition of IL-27-induced expression of CXCL10” value [7] turn out when B1 was run?
Answer: inhibited IL-27-induced expression of CXCL10
